The test system of the assay is colitis resulted by administration of an aqueous solution of dextran sulfate in rats. In words: Dextran sulfate-induced colitis in rats (Test Example 1). The class given is in vivo, rat. As to conditions: F 334 rats, 3% dextran sulfate in drinking water for 5 days, 5 mg/kg orally twice daily. On the procedure:
Rats (males; eight weeks age) of an F 334 strain (Japan SLC) were allowed free access to a 3% aqueous solution of dextran sulfate for five days and, after that, they were allowed free access to tap water for one day. The test substance was orally administered twice daily at the start of drinking of a 3% aqueous solution of dextran sulfate. After six days from the initiation of the administration, the large intestine was excised and its length was measured. With regard to the symptom score, (1) stool consistency, (2) fecal blood and (3) degree of body weight reduction from the previous day were evaluated in five stages as shown in the following Table 1 and a mean value thereof was calculated. As to the test substance, the compound A (5 mg/kg) was used. The test substance was administered by suspending in a 0.5% aqueous solution of methyl cellulose. A 0.5% aqueous solution of methyl cellulose was administered to the control group. Ten rats per group were used. [table] With regard to shortening of the large intestine, significant difference from the control group was tested by a t-test (*: p<0.05). With regard to the symptom score of colitis, significant difference from the control group was tested by a t-test (##: p<0.01).

Here are results for one molecule from patent publication US8394793B2, “Therapeutic agent for inflammatory bowel disease” (Nippon Shinyaku Co., Ltd., priority 2008, dated 2013).

Take `CC(C)N(CCCCOCC(=O)NS(C)(=O)=O)c1cnc(-c2ccccc2)c(-c2ccccc2)n1` [compound A, 2-{4-[N-(5,6-diphenylpyrazin-2-yl)-N-isopropylamino]butyl-oxy}-N-(methylsulfonyl)acetamide]: the “shortening of large intestine (length of the large intestine)” value (large intestine excised after six days, t-test vs control p<0.05, FIG. 1) is given as “significantly suppressed”. Under “t-test vs control p<0.01, FIG. 2”, the “symptom score of colitis (stool consistency, fecal blood, body weight reduction)” value is given as “significantly suppressed”.
